Results: patent US20040224958A1, “Pyridopyrimidinone derivatives for treatment of neurodegenerative disease” (priority 2000, published 2004)
Read-outs that look alike come from different tables or passages of the source.

Legend:
[1] = target: cdk4/D (Homo sapiens, UniProt P11802); assay: Cyclin-Dependent Kinase 4 (cdk4) Assay; type: biochemical; details: read-out: cdk4/D IC50
[2] = target: Cdk5/p25 (Homo sapiens, UniProt Q00535); assay: Cyclin-Dependent Kinase 5 High Throughput Screening (cdk5-HTS) Assay; type: biochemical; details: high throughput screen
Summary of the method: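 IC50 determined from 33P incorporation into GST-RbCOOH captured on glutathione plates and read by scintillation counting. Reaction: 1.0 μg/mL Cdk5/p25, 20 μM [γ33P]ATP, pH 7.4 Tris buffer with MgCl2 and DTT, 30 min at room temperature, stopped with EDTA.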

[3] = target: cdk2/cyclinE (Homo sapiens, UniProt P24941); assay: Cyclin-Dependent Kinase Assay cdk2/cyclinE
[4] = target: cdk2/cyclinA (Homo sapiens, UniProt P24941); assay: Cyclin-Dependent Kinase Assay cdk2/cyclinA
[5] = target: cdc2/cyclinB (Homo sapiens, UniProt P06493); assay: Cyclin-Dependent Kinase Assay cdc2/cyclinB
Chain of cdc2/cyclinB (P06493 whole entry): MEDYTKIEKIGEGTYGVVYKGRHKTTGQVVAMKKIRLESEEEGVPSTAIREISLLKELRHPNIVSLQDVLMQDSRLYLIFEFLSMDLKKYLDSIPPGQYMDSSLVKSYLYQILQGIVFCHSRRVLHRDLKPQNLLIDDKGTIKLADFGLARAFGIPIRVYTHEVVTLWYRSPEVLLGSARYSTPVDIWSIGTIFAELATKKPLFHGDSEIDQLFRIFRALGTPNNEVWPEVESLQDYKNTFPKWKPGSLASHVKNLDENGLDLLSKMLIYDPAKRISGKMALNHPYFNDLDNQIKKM
Chain of cdc2/cyclinB (P14635 whole entry, further chain): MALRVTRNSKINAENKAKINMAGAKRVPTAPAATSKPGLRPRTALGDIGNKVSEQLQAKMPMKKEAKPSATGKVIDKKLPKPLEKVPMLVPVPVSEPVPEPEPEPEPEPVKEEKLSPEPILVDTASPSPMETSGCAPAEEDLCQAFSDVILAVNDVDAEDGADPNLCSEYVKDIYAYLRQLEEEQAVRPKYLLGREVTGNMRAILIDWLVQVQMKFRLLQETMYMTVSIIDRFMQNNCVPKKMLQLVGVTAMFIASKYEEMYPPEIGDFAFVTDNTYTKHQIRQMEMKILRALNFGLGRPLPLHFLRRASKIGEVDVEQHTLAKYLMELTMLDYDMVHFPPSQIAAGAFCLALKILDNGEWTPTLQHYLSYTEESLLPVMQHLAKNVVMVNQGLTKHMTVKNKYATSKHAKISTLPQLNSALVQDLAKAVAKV

Chain of cdk4/D (P11802 whole entry): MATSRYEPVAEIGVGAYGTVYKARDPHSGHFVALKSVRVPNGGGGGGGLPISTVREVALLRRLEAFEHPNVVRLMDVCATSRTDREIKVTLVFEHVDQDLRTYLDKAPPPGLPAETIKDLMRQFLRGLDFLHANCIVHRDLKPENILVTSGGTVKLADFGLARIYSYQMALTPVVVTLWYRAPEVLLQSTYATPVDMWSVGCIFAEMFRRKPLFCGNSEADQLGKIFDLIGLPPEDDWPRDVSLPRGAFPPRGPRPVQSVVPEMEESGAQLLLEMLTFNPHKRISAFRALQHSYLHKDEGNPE
Chain of cdk4/D (P24385 whole entry, further chain): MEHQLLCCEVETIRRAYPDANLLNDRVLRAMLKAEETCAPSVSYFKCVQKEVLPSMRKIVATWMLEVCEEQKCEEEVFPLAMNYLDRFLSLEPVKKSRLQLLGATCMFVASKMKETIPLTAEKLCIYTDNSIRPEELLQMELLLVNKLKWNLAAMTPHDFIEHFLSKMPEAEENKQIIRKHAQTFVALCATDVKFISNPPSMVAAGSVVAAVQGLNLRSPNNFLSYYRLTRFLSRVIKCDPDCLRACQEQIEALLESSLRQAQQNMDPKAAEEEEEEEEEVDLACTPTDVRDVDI

Row | Structure (SMILES) | IC50 [1] | IC50 [2] | IC50 ([3]; cdk2/E IC50) | IC50 ([4]; cdk2/A IC50) | IC50 [5] | IC50 [3] | IC50 [4]
1 | CCC(C)n1c(=O)ccc2cnc(Nc3ccc(C)c(C)c3)nc21 (stereo not shown) [Example 476, 8-sec-Butyl-2-(3,4-dimethyl-phenylamino)-8Hi-pyrido[2,3-d]pyrimidin-7-one] | 230 nM | 31 nM | 200 nM | 160 nM | 170 nM |  | 
2 | CCC(CC)n1c(=O)ccc2cnc(Nc3ccc(F)c(Cl)c3)nc21 [Example 481, 2-(3-Chloro-4-fluoro-phenylamino)-8-(1-ethyl-propyl)-8H-pyrido[2,3-d]pyrimidin-7-one] | 938 nM | 39.1 nM | 69.3 nM | 418 nM | 134 nM |  | 
3 | CCC(CC)n1c(=O)ccc2cnc(Nc3ccc(C)c(F)c3)nc21 [Example 482, 8-(1-Ethyl-propyl)-2-(3-fluoro-4-methyl-phenylamino)-8H-pyrido[2,3-d]pyrimidin-7-one] | 166 nM | 63.2 nM |  |  | 214 nM | 152 nM | 597 nM
4 | CCC(CC)n1c(=O)ccc2cnc(Nc3ccc(F)cc3F)nc21 [Example 483, 2-(2,4-Difluoro-phenylamino)-8-(1-ethyl-propyl)-8H-pyrido[2,3-d]pyrimidin-7-one] | 1330 nM | 169 nM | 354 nM | 1670 nM | 731 nM |  | 
5 | CCC(CC)n1c(=O)ccc2cnc(Nc3ccc(C#N)cc3)nc21 [Example 484] | 187 nM | 40.8 nM | 136 nM | 363 nM | 192 nM |  | 
6 | CCC(CC)n1c(=O)ccc2cnc(Nc3ccc(Cl)c(C(F)(F)F)c3)nc21 [Example 486, 2-(4-Chloro-3-trifluoromethyl-phenylamino)-8-(1-ethyl-propyl)-8H-pyrido[2,3-d]pyrimidin-7-one] | 1030 nM | 82.8 nM | 467 nM | 920 nM | 218 nM |  | 
7 | CCC(CC)n1c(=O)ccc2cnc(Nc3cccc(C(F)(F)F)c3)nc21 [Example 487, 8-(1-Ethyl-propyl)-2-(3-trifluoromethyl-phenylamino)-8H-pyrido[2,3-d]pyrimidin-7-one] | 692 nM | 76.8 nM | 210 nM | 728 nM | 177 nM |  | 
8 | CCC(CC)n1c(=O)ccc2cnc(Nc3ccc(Br)c(C(F)(F)F)c3)nc21 [Example 488, 2-(4-Bromo-3-trifluoromethyl-phenylamino)-8-(1-ethyl-propyl)-8H-pyrido[2,3-d]pyrimidin-7-one] | 2240 nM | 124 nM | 494 nM | 1980 nM | 446 nM |  | 
9 | CCC(CC)n1c(=O)ccc2cnc(Nc3cccc(I)c3)nc21 [Example 490, 8-(1-Ethyl-propyl)-2-(3-iodo-phenylamino)-8H-pyrido[2,3-d]pyrimidin-7-one] | 350 nM | 49.2 nM | 79.7 nM | 753 nM | 86.7 nM |  | 
10 | CCC(CC)n1c(=O)ccc2cnc(Nc3ccc(C)c(C)c3)nc21 [Example 491, 2-(3,4-Dimethyl-phenylamino)-8-(I-ethyl-propyl)-8H-pyrido[2,3-d]pyrimidin-7-one] | 260 nM | 44.4 nM | 179 nM | 436 nM | 151 nM |  | 
11 | CCC(CC)n1c(=O)ccc2cnc(Nc3ccc4[nH]ccc4c3)nc21 [Example 492, 8-(1-Ethyl-propyl)-2-(1H-indol-5-ylamino)-8H-pyrido[2,3-d]pyrimidin-7-one] | 124 nM | 86 nM | 163 nM | 600 nM | 145 nM |  | 
12 | CCC(CC)n1c(=O)ccc2cnc(Nc3ccc4[nH]c(=O)[nH]c4c3)nc21 [Example 493, 8-(1-Ethyl-propyl)-2-(2-oxo-2,3-dihydro-1H-benzimidazol-5-ylamino)-8H-pyrido[2,3-d]pyrimidin-7-one] | 25 nM | 8.7 nM | 12 nM | 50.5 nM | 14.5 nM |  | 
13 | CCC(CC)n1c(=O)ccc2cnc(Nc3ccc(NC(=O)OC(C)(C)C)cc3)nc21 [Example 494, {4-[8-(1-Ethyl-propyl)-7-oxo-7,8-dihydro-pyrido[2,3-d]pyrimidin-2-ylamino]-phenyl}-carbamic acid tert-butyl ester] | 230 nM | 72 nM | 127 nM | 440 nM | 102 nM |  | 
14 | CCC(CC)n1c(=O)ccc2cnc(Nc3ccc(O)cc3F)nc21 [Example 495, 8-(1-Ethyl-propyl)-2-(2-fluoro-4-hydroxy-phenylamino)-8H-pyrido[2,3-d]pyrimidin-7-one] | 570 nM | 108 nM | 147 nM | 650 nM | 215 nM |  | 
